Results taken from article PMC9969764 (ChemMedChem, 2021).

How the values were obtained:
RET kinase = RET kinase (Homo sapiens, UniProt P07949); experiment: RET kinase biochemical assay; conditions: read-out: RET (IC50), mean of at least n = 3
KM-12 cells = experiment: Cell viability, TRKA-driven matched control; format: cell-based; conditions: read-out: KM-12 (EC50)
[1] = tested on: LC-2/ad cells (RET-CCDC6 fusion-driven NSCLC); experiment: Cell viability, RET-driven cell line; format: cell-based; conditions: read-out: LC-2/ad (EC50)
TRKA = TRKA (Homo sapiens, UniProt P04629); experiment: TRKA kinase biochemical assay; conditions: read-out: TRKA (IC50), mean of at least n = 3
A549 cells = experiment: Cell viability, cytotoxic control; format: cell-based; conditions: read-out: A549 (EC50)

Chain of RET kinase (P07949 29-1114): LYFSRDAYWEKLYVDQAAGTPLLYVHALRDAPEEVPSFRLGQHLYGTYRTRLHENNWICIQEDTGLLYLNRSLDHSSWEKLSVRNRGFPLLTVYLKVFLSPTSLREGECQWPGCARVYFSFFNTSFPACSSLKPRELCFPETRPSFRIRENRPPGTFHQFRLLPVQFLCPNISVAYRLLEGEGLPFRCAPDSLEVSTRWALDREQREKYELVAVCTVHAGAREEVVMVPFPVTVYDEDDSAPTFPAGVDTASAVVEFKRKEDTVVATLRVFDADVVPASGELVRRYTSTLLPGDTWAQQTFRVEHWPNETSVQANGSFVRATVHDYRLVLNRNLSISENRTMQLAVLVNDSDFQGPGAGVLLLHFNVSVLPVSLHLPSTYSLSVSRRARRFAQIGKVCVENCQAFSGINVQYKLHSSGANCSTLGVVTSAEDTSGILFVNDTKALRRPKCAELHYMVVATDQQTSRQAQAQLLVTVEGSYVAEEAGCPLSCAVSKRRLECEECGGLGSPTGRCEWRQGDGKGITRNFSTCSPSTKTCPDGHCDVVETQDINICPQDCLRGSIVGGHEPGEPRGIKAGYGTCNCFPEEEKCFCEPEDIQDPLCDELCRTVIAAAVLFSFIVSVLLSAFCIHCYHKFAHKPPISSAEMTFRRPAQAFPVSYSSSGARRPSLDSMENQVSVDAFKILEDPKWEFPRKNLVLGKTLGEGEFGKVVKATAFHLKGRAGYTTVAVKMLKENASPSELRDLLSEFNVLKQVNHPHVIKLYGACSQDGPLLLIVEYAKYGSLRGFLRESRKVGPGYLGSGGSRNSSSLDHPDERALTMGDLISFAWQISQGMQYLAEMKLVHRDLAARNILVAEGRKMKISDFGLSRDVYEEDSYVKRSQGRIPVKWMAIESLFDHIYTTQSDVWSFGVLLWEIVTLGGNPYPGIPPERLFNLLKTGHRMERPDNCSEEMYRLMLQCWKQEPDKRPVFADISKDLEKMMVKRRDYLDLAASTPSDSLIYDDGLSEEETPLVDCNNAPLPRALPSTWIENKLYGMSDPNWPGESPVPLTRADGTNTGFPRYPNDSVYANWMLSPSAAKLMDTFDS
Chain of TRKA (P04629 33-796): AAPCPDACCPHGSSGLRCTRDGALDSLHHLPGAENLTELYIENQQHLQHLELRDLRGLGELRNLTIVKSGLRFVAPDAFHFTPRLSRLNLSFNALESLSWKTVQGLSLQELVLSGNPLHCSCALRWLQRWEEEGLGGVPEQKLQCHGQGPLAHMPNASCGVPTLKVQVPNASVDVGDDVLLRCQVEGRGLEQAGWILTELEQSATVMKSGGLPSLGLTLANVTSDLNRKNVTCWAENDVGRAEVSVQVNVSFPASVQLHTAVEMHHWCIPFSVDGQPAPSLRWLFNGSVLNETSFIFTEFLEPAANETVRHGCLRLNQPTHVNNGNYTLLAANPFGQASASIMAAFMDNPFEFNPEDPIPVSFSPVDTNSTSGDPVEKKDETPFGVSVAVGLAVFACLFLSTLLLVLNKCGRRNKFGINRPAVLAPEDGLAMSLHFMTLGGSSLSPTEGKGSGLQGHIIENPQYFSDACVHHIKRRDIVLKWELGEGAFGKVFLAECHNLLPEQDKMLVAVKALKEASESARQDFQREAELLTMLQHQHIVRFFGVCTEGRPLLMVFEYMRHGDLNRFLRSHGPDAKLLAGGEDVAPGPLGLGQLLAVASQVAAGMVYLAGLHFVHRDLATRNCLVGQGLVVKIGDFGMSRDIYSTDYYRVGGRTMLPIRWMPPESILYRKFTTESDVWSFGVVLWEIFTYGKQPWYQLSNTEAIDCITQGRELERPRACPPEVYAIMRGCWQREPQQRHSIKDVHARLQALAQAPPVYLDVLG

Row | Structure (SMILES) | IC50 (RET kinase) [µM] | EC50 (KM-12 cells) [µM] | EC50 [1] [µM] | IC50 (TRKA) [µM] | EC50 (A549 cells) [µM]
1 | Cn1nc(-c2ccccc2)c2c(N)ncnc21 [4a] | 6.82 ± 2.22 |  |  |  | 
2 | Nc1ncnc2[nH]ncc12 [fragment 1, pyrazoloadenine] | 9.2 | 1.73 | 1.47 | 57.1 | 3.02
